Assay results: article PMC10888192, “New Derivatives of 1-(3-Methyl-1-Benzofuran-2-yl)Ethan-1-one: Synthesis and Preliminary Studies of Biological Activity” (International Journal of Molecular Sciences, 2024)

Experiments:
HaCaT cells = experiment: Trypan blue exclusion assay, HaCaT; type: cell-based, human; conditions: IC50 concentration, 72 h
Description: The MTT assay assesses the viable cell number based on mitochondrial enzyme activity. […] In the next step of our studies, we analyzed the total cell number and viability after exposure to the selected compounds at IC50 concentration using trypan blue exclusion assay. K562 cells were incubated with tested compounds over 72 h. […] To assess the antiproliferative properties of newly synthesized derivatives, we analyzed the total cell number. […] The parallel experiment was conducted with HaCaT cells. […] The trypan blue test rapidly assesses cell viability indirectly from cell membrane integrity, but some publications have indicated weaknesses of this viability test. […] On the other hand, cell membrane integrity may be affected even while the cell might still be able to repair itself and become fully viable.
To evaluate the antiproliferative effects of the novel benzofurans derivatives the trypan blue exclusion assay was performed. Cells (HaCat, and K562) were seeded into 12-well plates (2 × 10^4 cells/well). After 24 h, cells were exposed to the tested compounds at concentrations of their respective IC50 and incubated for 72h. […] Cells were counted by automatic cell counter (Countessa). Data obtained were expressed as the mean ± SD and the mean percentage of viable cells was calculated from three independent experiments performed in triplicate.

[1] = tested on: HaCaT cells (human immortal keratinocytes); experiment: MTT cytotoxicity assay, HaCaT; type: cell-based; conditions: 72 h incubation, mean ± SD
Description: (§1) The cell viability was analyzed at the following six concentrations of compounds: 5, 10, 20, 40, 60 and 100 µM after 72 h incubation.
(§2) Additionally, to determine the safety profile of the tested compounds, the therapeutic index (TI) (the ratio of IC50 value in HaCaT to cancer cells K562) was calculated. […] The goal of conducting the MTT assay in this research was to select benzofuran derivatives, which manage to reduce viability of cancer cells while exposing mild effects on normal healthy cells.
(§3) The cytotoxicity was evaluated by MTT reduction assay, which measures mitochondrial respiratory function. The test was performed based on the method described by Präbst et al.. Cells (1 × 10^4/well), in logarithmic phase, were seeded into 96-well plates in appropriate medium. After 24 h, cells were exposed to test compounds. […] After 72 h, the medium with the compounds was completely removed and MTT solution (0.5 mg/mL) in fresh medium without serum was added to each well. Plates with cells were incubated for 4 h at 37 °C in the dark. Then, MTT solution was removed and replenished with 0.1 mL DMSO: isopropanol (1:1) mixture to dissolve the generated formazan crystals. The optical density was measured with a […] GO (ThermoScientific) microplate reader at 570 nm. Replicates of three wells for each dosage, including vehicle control, were analyzed for each experiment. The experiments were conducted in triplicate. Control cells which were only treated with respective medium were used as the 100% viability value. […] Additionally, to determine the safety profile of the test compounds, therapeutic indexes (TI) (the ratio of IC50 values in HaCat to cancer cells (K562, PC3, SW620, Cack-1)) were calculated.

K562 cells = experiment: Annexin V-FITC/PI apoptosis assay, flow cytometry; type: cell-based, human; conditions: Annexin V-FITC, IC50 concentration, 72 h
Description: ROS may play a different function in different stages of cancer. ROS might enhance cell growth and proliferation through the induction of various cell signaling pathways involving nuclear factor-kappa B (NF-κB) and STAT3, hypoxia-inducible factor 1α (HIF1α), kinases, growth factors, cytokines and many other proteins. On the other hand, the accumulation of ROS can induce cell damage and promote apoptosis. It has also been confirmed that elevated ROS concentration may cause mitochondrial membrane depolarization and facilitate increased cellular pro-apoptotic molecules releasing. […] As has been previously reported, lead compound 1,1′-[3-(bromomethyl)-5,6-dimethoxy-1-benzofuran-2,7-diyl] induces apoptosis in human leukemia cells. […] We used the Annexin V-FITC test, which allows us to detect the early structural changes in cellular membrane which occur during apoptosis. […] In the control sample almost 94% of cells were neither apoptotic nor necrotic. […] As has been previously written, the MTT test assesses the toxicity of tested compounds based on the activity of mitochondrial enzymes. […] In order to estimate the effect of K562 exposure on the tested compounds as well as to confirm apoptotic properties of new benzofurans, we analyzed the effect of the compounds caspases 3 and 7 activities. […]

[2] = tested on: Cacki-1 cells (human clear cell renal cell carcinoma); experiment: MTT cytotoxicity assay, Cacki-1; type: cell-based; conditions: 72 h incubation
Description: as §1, §2, §3

[3] = tested on: SW620 cells (human metastatic colon cancer); experiment: MTT cytotoxicity assay, SW620; type: cell-based; conditions: SW-620, 72 h incubation, mean ± SD
Description: as §1, §2, §3

[4] = tested on: PC3 cells (human metastatic prostate cancer); experiment: MTT cytotoxicity assay, PC3; type: cell-based; conditions: PC-3, 72 h incubation, mean ± SD
Description: as §1, §2, §3

COc1cc(OC)c2c(CBr)c(C(C)=O)oc2c1 [Compound 6, 1-[3-(Bromomethyl)-4,6-Dimethoxy-1-Benzofuran-2-yl]Ethanone]
Cell Number (×10^6) (HaCaT cells): 2.45 ± 1.63 ×10^6
IC50 [1]: 12.4 ± 1.27 µM
Apoptosis (early and late stages), share of K562 cells (K562 cells): 21.6%
IC50 [2]: > 100 µM
IC50 [3]: > 100 µM
IC50 [4]: 7.02 ± 2.22 µM

CCOc1cccc2oc(C(C)=O)c(CBr)c12 [Compound 8, 1-[3-(Bromomethyl)-4-Ethoxy-1-Benzofuran-2-yl]Ethanone]
Cell Number (×10^6) (HaCaT cells): 2.00 ± 0.42 ×10^6
IC50 [1]: 23.6 ± 10.7 µM
Apoptosis (early and late stages), share of K562 cells (K562 cells): 60.1%
IC50 [2]: > 100 µM
IC50 [3]: > 100 µM
IC50 [4]: 7.86 ± 2.62 µM
